Laboratory results as given in patent US20040028675A1, “Compositions for the treatment of lupus” (Zarlink Semiconductor AB, priority 2001, published 2004).
One block for each compound: values may come before it.

Experiments:
Kv1.3 channel [1] = molecular target: T1, Kv1.3 channel (Homo sapiens, UniProt P22001); assay: Screening tests of ion channel function; settings: screening tests by experts in ion channel function
[2] = test system: patients with Lupus (Systemic Lupus Erythematosus); assay: Treatment of patients with Lupus (SLE) with the inventive composition
Kv1.3 channel [3] = molecular target: T1, Kv1.3 channel; settings: independently demonstrated; cited from earlier work
[4] = test system: patients with Lupus (Systemic Lupus Erythematosus); settings: osteoarthritis or Lupus caused joint inflammation; cited from earlier work

T1 sequence (P22001 whole entry): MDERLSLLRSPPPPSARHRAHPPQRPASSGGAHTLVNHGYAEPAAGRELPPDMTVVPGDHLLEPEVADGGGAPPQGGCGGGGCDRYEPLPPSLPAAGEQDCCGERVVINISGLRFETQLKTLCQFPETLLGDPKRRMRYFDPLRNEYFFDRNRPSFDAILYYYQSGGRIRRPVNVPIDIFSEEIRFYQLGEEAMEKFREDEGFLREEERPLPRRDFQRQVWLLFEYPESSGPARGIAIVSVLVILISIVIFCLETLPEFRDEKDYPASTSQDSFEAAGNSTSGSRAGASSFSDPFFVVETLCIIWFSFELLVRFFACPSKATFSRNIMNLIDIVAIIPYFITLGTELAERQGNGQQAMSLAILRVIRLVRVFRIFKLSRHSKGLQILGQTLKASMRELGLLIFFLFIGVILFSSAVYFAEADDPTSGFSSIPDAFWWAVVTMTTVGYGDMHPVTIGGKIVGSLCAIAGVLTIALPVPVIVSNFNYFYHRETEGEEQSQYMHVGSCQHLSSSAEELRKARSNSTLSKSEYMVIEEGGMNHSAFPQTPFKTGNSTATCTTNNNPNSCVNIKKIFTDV

effectiveness in tests of ion channel function (Kv1.3 channel [1]): even more effective than Quercetin
Compound: O=c1cc(-c2ccc(O)c(O)c2)oc2cc(O)cc(O)c12 [Luteolin]
effectiveness of the bioflavonoid in the inventive formula (in place of Quercetin) ([2]; limited tests): somewhat more effective than Quercetin

Compound: O=c1c(O)c(-c2cc(O)c(O)c(O)c2)oc2cc(O)cc(O)c12 [Myricetin]
effectiveness of the bioflavonoid in the inventive formula (in place of Quercetin) ([2]; human, in vivo): somewhat effective

effectiveness in tests of ion channel function (Kv1.3 channel [1]): very effective
Compound: O=c1c(O)c(-c2ccc(O)c(O)c2)oc2cc(O)cc(O)c12 [Quercetin]
modulating the conduction by the Kv1.3 potassium channel (Kv1.3 channel [3]): very effective

Compound: Bromelain
ameliorating joint pain, Bromelain alone [4]: not effective
